From patent US11685747B2, “Compounds that inhibit MCL-1 protein” (AMGEN INC., priority 2014, dated 2023)

Assays:
recombinant human Mcl-1 = biological target: T1, recombinant human Mcl-1 (Homo sapiens, UniProt Q07820); assay: Cell free Mcl-1:Bim affinity assay (Mcl-1 HTRF, TR-FRET); assay type: binding; details: inhibition of Mcl-1/Bim interaction
T1 construct: C-terminally 6×His tagged Mcl-1 containing residues 171-327; made in house
Protocol: Cell Free Mcl-1:Bim Affinity Assay (Mcl-1 HTRF)
The inhibition of the Mcl-1/Bim interaction was measured using a time-resolved fluorescence resonance energy transfer (TR-FRET) assay. […] A biotinylated peptide derived from human Bim (residues 51-76) was purchased from CPC Scientific (San Jose, Calif.). The TR-FRET assay was conducted in a 384-well white OptiPlate™ (PerkinElmer, Waltham, Mass.) in a total volume of 40 μL. […] The reaction plates were further incubated overnight and then were read on an Envision® multimode reader (PerkinElmer). […] The IC50 values of test compounds were determined from duplicate data by analyzing competition curves using a four-parameter sigmoidal model in GraphPad Prism (GraphPad Software, San Diego, Calif.) or in Genedata Screener® (Genedata, Basel, Switzerland).

[1] = biological target: T2, Mcl-1/Bak protein-protein interactions (Homo sapiens, UniProt Q07820); assay: Cell-based split luciferase complementation assay; details: HEK 293 M cells, serum-free, 4 h
T2 construct: expressed in transfected cells; host or cells: HEK 293 M cells, transient transfection
Protocol: Cell-Based Assay (Split Luciferase)
A split luciferase complementation assay was developed to determine the inhibition of Mcl-1/Bak protein-protein interactions in cells. […] Transient transfection was performed using Lipofectamine® LTX/Plus™ reagent (Life Technologies, Grand Island, N.Y.). 24 h after transfection, cells were collected using non-enzyme based cell dissociation buffer StemPro® Accutase® (Life Technologies), and resuspended in serum-free Opti-MEM® (Life Technologies). Cells were then seeded into assay plates with serially diluted test compounds in 0.3% DMSO at density of a 5000 cells/well. Cells were then incubated for 4 h at 37° C. in a cell culture incubator supplement with 5% CO2. Test plates were equilibrated to room temperate for 30 min before addition of 30 μL Steady-Glo® Luciferase assay reagent (Promega, Madison, Wis.) into each test well. Luminescence was determined using an EnVision® Multilabel plate reader 25 min after the addition of detection reagent. IC50 values were then calculated with Xlfit using a logistical 4-parameter fit model in GraphPad Prism (GraphPad Software, San Diego, Calif.) or in Genedata Screener® (Genedata, Basel, Switzerland).

OPM-2 = assay: Cell viability assay (OPM-2 10 FBS, CellTiter-Glo); assay type: cell-based, human; details: OPM-2 cells
Protocol: Cell Viability Assay (OPM-2 10 FBS)
Cells were seeded into 384-well plates at 3000 cells/well density in complete growth medium containing 10% FBS, and incubated for 16 h with serially diluted test compounds in a 37° C. incubator with 5% CO2. Cell viability was tested using CellTiter-Glo® assay (Promega, Madison, Wis.) according to the manufacturer recommendations. Luminescence was determined using an EnVision® Multilabel plate reader 25 min after the addition of detection reagent. IC50 values were then calculated with Xlfit using a logistical 4-parameter fit model in GraphPad Prism (GraphPad Software, San Diego, Calif.) or in Genedata Screener® (Genedata, Basel, Switzerland).

T2 sequence (Q07820 whole entry): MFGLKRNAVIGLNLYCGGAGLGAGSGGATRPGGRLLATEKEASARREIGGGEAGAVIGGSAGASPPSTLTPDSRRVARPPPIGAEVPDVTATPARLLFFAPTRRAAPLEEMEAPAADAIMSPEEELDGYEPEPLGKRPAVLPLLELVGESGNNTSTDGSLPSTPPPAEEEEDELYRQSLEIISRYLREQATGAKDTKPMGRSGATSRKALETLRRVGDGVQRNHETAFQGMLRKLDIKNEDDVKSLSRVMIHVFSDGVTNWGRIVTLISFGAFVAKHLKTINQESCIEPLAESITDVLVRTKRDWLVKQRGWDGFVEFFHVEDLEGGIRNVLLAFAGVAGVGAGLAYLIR
T1 sequence (Q07820 171-327): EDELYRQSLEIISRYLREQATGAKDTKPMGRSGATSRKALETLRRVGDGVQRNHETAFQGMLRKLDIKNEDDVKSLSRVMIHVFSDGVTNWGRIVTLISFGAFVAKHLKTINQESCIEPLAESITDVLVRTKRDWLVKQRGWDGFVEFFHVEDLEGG

| Structure (SMILES) | IC50 (recombinant human Mcl-1) | IC50 [1] | IC50 (OPM-2; Homo sapiens, OPM-2, 16 h) | IC50 (OPM-2; 16 h) | IC50 (OPM-2; Homo sapiens, 16 h) |
| --- | --- | --- | --- | --- | --- |
| CC1(C)CC/C=C\[C@H](O)[C@@H]2CC[C@H]2CN2C[C@@]3(CCCc4cc(Cl)ccc43)COc3ccc(cc32)C(=O)NS1(=O)=O (single isomer, unassigned) [Example 41] | 4.42 nM | 128 nM | 4750 nM | – | – |
| CC(C)O[C@H]1/C=C/C[C@H](C)[C@@H](C)S(=O)(=O)NC(=O)c2ccc3c(c2)N(C[C@@H]2CC[C@H]21)C[C@@]1(CCCc2cc(Cl)ccc21)CO3 [Example 43, (1S,3′R,6′R,7′S,8′E,11′S,12′R)-6-Chloro-11′,12′-Dimethyl-7′-(1-Methylethoxy)-3,4-Dihydro-2H,15′H-Spiro[Naphthalene-1,22′-[20]Oxa[13]Thia[1,14]Diazatetracyclo[14.7.2.0^3,6.0^19,24]Pentacos A[8,16,18,24]Tetraen]-15′-One-13′,13′-Dioxide] | 1.75 nM | 130 nM | 902 nM | – | – |
| COCCO[C@H]1/C=C/CC[C@@H](C)S(=O)(=O)NC(=O)c2ccc3c(c2)N(C[C@@H]2CC[C@H]21)C[C@@]1(CCCc2cc(Cl)ccc21)CO3 [Example 76, (1S,3′R,6′R,7′S,8′E,12′R)-6-Chloro-7′-(2-Methoxyethoxy)-12′-Methyl-3,4-Dihydro-2H,15′H-Spiro[Naphthalene-1,22′-[20]Oxa[13]Thia[1,14]Diazatetracyclo[14.7.2.0^3,6.0^19,24]Pentacos A[8,16,18,24]Tetraen]-15′-One 13′,13′-Dioxide] | 1.12 nM | 77.3 nM | 668 nM | – | – |
| CC(C)C[C@@H]1[C@@H](C)C/C=C/[C@H](O)[C@@H]2CC[C@H]2CN2C[C@@]3(CCCc4cc(Cl)ccc43)COc3ccc(cc32)C(=O)NS1(=O)=O (single isomer, unassigned) [Example 67] | 1.08 nM | 84.8 nM | – | 600 nM | – |
| O=C1NS(=O)(=O)CCCCC[C@H](O)[C@@H]2CC[C@H]2CN2C[C@@]3(CCCc4cc(Cl)ccc43)COc3ccc1cc32 [Example 10, (1S,3′R,6′R,7′S)-6-Chloro-7′-Hydroxy-3,4-Dihydro-2H,15′Hspiro[Naphthalene-1,22′[20]Oxa[13]Thia[1,14]Diazatetracyclo[14.7.2.0^3,6.0^19,24]Penta Cosa[16,18,24]Trien]-15′-One 13′,13′-Dioxide] | 1.18 nM | 232 nM | 9410 nM | – | – |
| C[C@@H]1C/C=C/[C@H](O)[C@@H]2CC[C@H]2CN2C[C@@]3(CCCc4cc(Cl)ccc43)COc3ccc(cc32)C(=O)NS(=O)(=O)[C@H]1CC1CCC1 (single isomer, unassigned) [Example 63] | 0.423 nM | 30.7 nM | – | 183 nM | – |
| CC1(C)CC/C=C/[C@H](O)[C@@H]2CC[C@H]2CN2C[C@@]3(CCCc4cc(Cl)ccc43)COc3ccc(cc32)C(=O)NS1(=O)=O (single isomer, unassigned) [Example 40] | 7.68 nM | 297 nM | 7300 nM | – | – |
| C[C@H]1C/C=C/[C@H](O)[C@@H]2CC[C@H]2CN2C[C@@]3(CCCc4cc(Cl)ccc43)COc3ccc(cc32)C(=O)NS(=O)(=O)[C@@H]1CC1CC1 (single isomer, unassigned) [Example 59] | 0.492 nM | 61.5 nM | – | 247 nM | – |
| CO[C@H]1/C=C/C[C@@H](C)[C@@H](C(C)C)S(=O)(=O)NC(=O)c2ccc3c(c2)N(C[C@@H]2CC[C@H]21)C[C@@]1(CCCc2cc(Cl)ccc21)CO3 [Example 53, (1S,3′R,6′R,7′S,8′E,11′R,12′R)-6-Chloro-7′-Methoxy-11′-Methyl-12′-(1-Methylethyl)-3,4-Dihydro-2H,15′H-Spiro[Naphthalene-1,22′-[20]Oxa[13]Thia[1,14]Diazatetracyclo[14.7.2.0^3,6.0^19,24]Pentacosa[8,16,18,24]Tetraen]-15′-One 13′,13′-Dioxide] | 1.39 nM | 51.4 nM | 328 nM | – | – |
| CCC[C@@H]1[C@@H](C)C/C=C/[C@H](O)[C@@H]2CC[C@H]2CN2C[C@@]3(CCCc4cc(Cl)ccc43)COc3ccc(cc32)C(=O)NS1(=O)=O (single isomer, unassigned) [Example 69] | 8.66 nM | 425 nM | – | 2710 nM | – |
| C[C@H]1C/C=C/[C@H](O)[C@@H]2CC[C@H]2CN2C[C@@]3(CCCc4cc(Cl)ccc43)COc3ccc(cc32)C(=O)NS(=O)(=O)[C@@H]1C1CC1 (single isomer, unassigned) [Example 46] | 0.728 nM | 78.3 nM | – | 334 nM | – |
| CC1(C)CCCC[C@H](O)[C@@H]2CC[C@H]2CN2C[C@@]3(CCCc4cc(Cl)ccc43)COc3ccc(cc32)C(=O)NS1(=O)=O [Example 42] | 7.55 nM | 850 nM | – | – | – |
| CC[C@@H]1CC/C=C\[C@H](O)[C@@H]2CC[C@H]2CN2C[C@@]3(CCCc4cc(Cl)ccc43)COc3ccc(cc32)C(=O)NS1(=O)=O (single isomer, unassigned) [Example 18] | – | – | 694 nM | – | – |
| CO[C@H]1/C=C/C[C@H](C)[C@@H](C)S(=O)(=O)NC(=O)c2ccc3c(c2)N(C[C@@H]2CC[C@H]21)C[C@@]1(CCCc2cc(Cl)ccc21)CO3 [Example 4, (1S,3′R,6′R,7′S,8′E,11′S,12′R)-6-Chloro-7′-Methoxy-11′,12′-Dimethyl-3,4-Dihydro-2H,15′H-Spiro[Naphthalene-1,22′-[20]Oxa[13]Thia[1,14]Diazatetracyclo[14.7.2.0^3,6.0^19,24]Pentacos A[8,16,18,24]Tetraen]-15′-One-13′, 13′-Dioxide] | – | – | – | – | 236 nM |
| CC[C@H]1CC/C=C/[C@H](O)[C@@H]2CC[C@H]2CN2C[C@@]3(CCCc4cc(Cl)ccc43)COc3ccc(cc32)C(=O)NS1(=O)=O (single isomer, unassigned) [Example 19] | – | – | 3990 nM | – | – |
| C[C@H]1CCC[C@H](O)[C@@H]2CC[C@H]2CN2C[C@@]3(CCCc4cc(Cl)ccc43)COc3ccc(cc32)C(=O)NS(=O)(=O)[C@H]1C [Example 37, (1S,3′R,6′R,7′S,11′S,12′S)-6-Chloro-7′-Hydroxy-11,12′-Dimethyl-3,4-Dihydro-2H,15′H-Spiro[Naphthalene-1,22′-[20]Oxa[13]Thia[1,14]Diazatetracyclo[14.7.2.0^3,6.0^19,24]Pentacos A[16,18,24]Trien]-15′-One 13′,13′-Dioxide] | – | 667 nM | 5740 nM | – | – |
| CC[C@H]1CCCC[C@H](O)[C@@H]2CC[C@H]2CN2C[C@@]3(CCCc4cc(Cl)ccc43)COc3ccc(cc32)C(=O)NS1(=O)=O [Example 23, (1S,3′R,6′R,7′S,12′S)-6-Chloro-12′-Ethyl-7′-Hydroxy-3,4-Dihydro-2H,15′H-Spiro[Naphthalene-1,22′-[20]Oxa[13]Thia[1,14]Diazatetracyclo[14.7.2.0^3,6.0^19,24]Pentacos A[16,18,24]Trien]-15′-One 13′,13′-Dioxide] | 3.68 nM | 372 nM | – | – | – |
| C[C@@H]1CCC[C@H](O)[C@@H]2CC[C@H]2CN2C[C@@]3(CCCc4cc(Cl)ccc43)COc3ccc(cc32)C(=O)NS(=O)(=O)C1 (single isomer, unassigned) [Example 39] | 10.7 nM | – | – | – | – |
| CO[C@H]1/C=C\C[C@H](C)[C@@H](C)S(=O)(=O)NC(=O)c2ccc3c(c2)N(C[C@@H]2CC[C@H]21)C[C@@]1(CCCc2cc(Cl)ccc21)CO3 [Example 5, (1S,3′R,6′R,7′S,8′Z,11′S,12′R)-6-Chloro-7′-Methoxy-11′,12′-Dimethyl-3,4-Dihydro-2H,15′H-Spiro[Naphthalene-1,22′-[20]Oxa[13]Thia[1,14]Diazatetracyclo[14.7.2.0^3,6.0^19,24]Pentacos A[8,16,18,24]Tetraen]-15′-One 13′,13′-Dioxide] | – | – | 1140 nM | – | – |
| C[C@@H]1CCC[C@H](O)[C@@H]2CC[C@H]2CN2C[C@@]3(CCCc4cc(Cl)ccc43)COc3ccc(cc32)C(=O)NS(=O)(=O)[C@H]1C (single isomer, unassigned) [Example 36] | 44.5 nM | 1500 nM | – | – | – |
| C[C@H]1CCC[C@H](O)[C@@H]2CC[C@H]2CN2C[C@@]3(CCCc4cc(Cl)ccc43)COc3ccc(cc32)C(=O)NS(=O)(=O)C1 (single isomer, unassigned) [Example 38] | – | 1040 nM | – | – | – |
| CC[C@@H]1CC/C=C/[C@H](O)[C@@H]2CC[C@H]2CN2C[C@@]3(CCCc4cc(Cl)ccc43)COc3ccc(cc32)C(=O)NS1(=O)=O (single isomer, unassigned) [Example 17] | – | – | 260 nM | – | – |
